This is an account of results in patent US20150057253A1, “ALKYL DERIVATIVES AS SPHINGOSINE-1 PHOSPHATE RECEPTORS MODULATORS” (Allergan, Inc., priority 2013, published 2015).

Molecules are shown by their SMILES.

T1 sequence (P21453 whole entry): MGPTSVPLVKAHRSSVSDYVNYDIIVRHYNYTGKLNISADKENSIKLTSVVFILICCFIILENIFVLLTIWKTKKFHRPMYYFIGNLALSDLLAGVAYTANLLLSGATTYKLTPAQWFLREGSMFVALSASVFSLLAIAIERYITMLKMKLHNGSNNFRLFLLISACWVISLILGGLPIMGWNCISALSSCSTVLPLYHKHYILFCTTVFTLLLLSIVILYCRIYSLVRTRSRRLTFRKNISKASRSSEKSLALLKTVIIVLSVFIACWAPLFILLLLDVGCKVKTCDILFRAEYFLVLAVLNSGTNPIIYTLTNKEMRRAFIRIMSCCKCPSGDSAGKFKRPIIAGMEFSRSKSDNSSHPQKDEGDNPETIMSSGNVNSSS

The experiment has as its target T1, human S1P1 receptor (Homo sapiens, UniProt P21453).
T1 construct: expressed in transfected cells; membrane preparation
The experiment can be described thus: GTP γ35S binding assay for S1P1 activity. In kind it is biochemical. To be noted: membranes of cells stably expressing the S1P1 receptor, test compounds 0.08 to 5,000 nM. The protocol:
Compounds were synthesized and tested for S1P1 activity using the GTP γ^35S binding assay. These compounds may be assessed for their ability to activate or block activation of the human S1P1 receptor in cells stably expressing the S1P1 receptor.
GTP γ^35S binding was measured in the medium containing (mM) HEPES 25, pH 7.4, MgCl2 10, NaCl 100, dithiothreitol 0.5, digitonin 0.003%, 0.2 nM GTP γ^35S, and 5 μg membrane protein in a volume of 150 μl. Test compounds were included in the concentration range from 0.08 to 5,000 nM unless indicated otherwise. Membranes were incubated with 100 μM 5′-adenylylimidodiphosphate for 30 min, and subsequently with 10 μM GDP for 10 min on ice. Drug solutions and membrane were mixed, and then reactions were initiated by adding GTP γ^35S and continued for 30 min at 25° C. Reaction mixtures were filtered over Whatman GF/B filters under vacuum, and washed three times with 3 mL of ice-cold buffer (HEPES 25, pH7.4, MgCl2 10 and NaCl 100). Filters were dried and mixed with scintillant, and counted for ^35S activity using a β-counter. Agonist-induced GTP γ^35S binding was obtained by subtracting that in the absence of agonist. Binding data were analyzed using a non-linear regression method. In case of antagonist assay, the reaction mixture contained 10 nM […] in the presence of test antagonist at concentrations ranging from 0.08 to 5000 nM.
For orientation: Binding of GTPγS marks nucleotide exchange on a G protein.
`Cc1ccc(CC(CCCc2ccc(CNCCC(=O)O)cc2)c2cccc(Cl)c2)cc1C` (stereo not drawn) [3-({4-[4-(3-Chlorophenyl)-5-(3,4-dimethylphenyl)pentyl]benzyl}amino)propanoic acid] yielded a concentration for a half-maximal effect (EC50) of 142 nM.

`Cc1ccc(CC(CCCCc2ccc(CNCCC(=O)O)cc2)c2cccc(Cl)c2)cc1C` (stereo not drawn) [3-({4-[5-(3-Chlorophenyl)-6-(3,4-dimethylphenyl)hexyl]benzyl}amino)propanoic acid] yielded an EC50 of 20.1 nM.

`Cc1ccc(CC(CCCCc2ccc(CNCCCP(=O)(O)O)cc2)c2cccc(Cl)c2)cc1C` (stereo not drawn) [[3-({4-[5-(3-Chlorophenyl)-6-(3,4-dimethylphenyl)hexyl]benzyl}amino)propyl]phosphonic acid]: the EC50 worked out at 3.72 nM.

In turn, `Cc1ccc(CC(CCCc2ccc(CNCCCP(=O)(O)O)cc2)c2cccc(Cl)c2)cc1C` (stereo not drawn) [[3-({4-[4-(3-Chlorophenyl)-5-(3,4-dimethylphenyl)pentyl]benzyl}amino)propyl]phosphonic acid] came in with a 50% effective concentration (EC50) of 3.09 nM.

The compound `Cc1ccc(CC(CCCCc2ccc(CNCCC(=O)O)cc2)c2cc(F)cc(F)c2)cc1C` (stereo not drawn) [3-({4-[5-(3,5-Difluorophenyl)-6-(3,4)-dimethylphenyl)hexyl]benzyl}amino)propanoic acid] returned an EC50 of 6.79 nM.

Take `Cc1ccc(CC(CCCCc2ccc(CNCCCP(=O)(O)O)cc2)c2cc(F)cc(F)c2)cc1C` (stereo not drawn) [[3-({4-[5-(3,5-Difluorophenyl)-6-(3,4-dimethylphenyl)hexyl]benzyl}amino)propyl]phosphonic acid]: the concentration giving a half-maximal response (EC50) is 5.09 nM.

One may read the EC50 as the midpoint of the concentration-response curve. A low value points to a more potent agent.
